In US20160315271A1, “ORGANIC TRANSISTOR, COMPOUND, ORGANIC SEMICONDUCTOR MATERIAL FOR NON-LIGHT-EMITTING ORGANIC SEMICONDUCTOR DEVICE, MATERIAL FOR ORGANIC TRANSISTOR, COATING SOLUTION FOR NON-LIGHT-EMITTING ORGANIC SEMICONDUCTOR DEVICE, AND ORGANIC SEMICONDUCTOR FILM FOR NON-LIGHT-EMITTING ORGANIC SEMICONDUCTOR DEVICE” (FUJIFILM Corporation, priority 2014, published 2016):

Assay: Solubility in toluene
[1] = 20 mg mixed with toluene (1 mL)
[2] = organic solvent or mixture, thermodynamic from solid

SMILES	Solubility [1]	Solubility [2]
CCCCCCCCc1ccc(-c2cc3cc4ccc5cc6cc(-c7ccc(CCCCCCCC)cc7)sc6cc5c4cc3s2)cc1 [Compound 11]	A (Completely dissolved.)	–
CCCCCCCCCCCCc1cc2cc3ccc4cc5cc(CCCCCCCCCCCC)sc5cc4c3cc2s1 [Compound 5]	A (Completely dissolved.)	–
c1ccc(-n2c3ccccc3c3cc4ccc5cc6c7ccccc7n(-c7ccccc7)c6cc5c4cc32)cc1 [compound 2, reference compound]	–	< 20 mg/mL
CCCCCCCCc1cc2cc3ccc4cc5cc(CCCCCCCC)n(C)c5cc4c3cc2n1C [Compound 3]	A (Completely dissolved.)	–
Cc1c(C)n(-c2ccccc2)c2c1ccc1c3ccc4c(C)c(C)n(-c5ccccc5)c4c3ccc12 [compound 1, reference compound]	–	< 20 mg/mL
CCCCCCCCc1csc(-c2cc3cc4ccc5cc6cc(-c7cc(CCCCCCCC)cs7)sc6cc5c4cc3s2)c1 [Compound 24]	A (Completely dissolved.)	–
CCCCCCCCc1ccc(-c2cc3cc4ccc5cc6cc(-c7ccc(CCCCCCCC)s7)sc6cc5c4cc3s2)s1 [Compound 16]	A (Completely dissolved.)	–
